Measured values as given in patent US20250186408A1, “TREATMENT OF PHARMACORESISTANT EPILEPSY” (Katholieke Universiteit Leuven, priority 2021, published 2025).
Like-named read-outs stand apart in the source and are kept apart here.

Tests used:
[1] = molecular target: nAChR (a4/b2) (Homo sapiens, UniProt P17787+P43681); assay: Ion Channel nAChR (a4/b2) Blocker; assay type: cell-based; conditions: for Emax: Ion Channel nAChR (a4/b2) Blocker, read-out: Max response
[2] = molecular target: CHRM3 (Homo sapiens, UniProt P20309); assay: Calcium Flux CHRM3 Antagonist; conditions: for Emax: read-out: Max response
Sequence of CHRM3 (P20309 whole entry): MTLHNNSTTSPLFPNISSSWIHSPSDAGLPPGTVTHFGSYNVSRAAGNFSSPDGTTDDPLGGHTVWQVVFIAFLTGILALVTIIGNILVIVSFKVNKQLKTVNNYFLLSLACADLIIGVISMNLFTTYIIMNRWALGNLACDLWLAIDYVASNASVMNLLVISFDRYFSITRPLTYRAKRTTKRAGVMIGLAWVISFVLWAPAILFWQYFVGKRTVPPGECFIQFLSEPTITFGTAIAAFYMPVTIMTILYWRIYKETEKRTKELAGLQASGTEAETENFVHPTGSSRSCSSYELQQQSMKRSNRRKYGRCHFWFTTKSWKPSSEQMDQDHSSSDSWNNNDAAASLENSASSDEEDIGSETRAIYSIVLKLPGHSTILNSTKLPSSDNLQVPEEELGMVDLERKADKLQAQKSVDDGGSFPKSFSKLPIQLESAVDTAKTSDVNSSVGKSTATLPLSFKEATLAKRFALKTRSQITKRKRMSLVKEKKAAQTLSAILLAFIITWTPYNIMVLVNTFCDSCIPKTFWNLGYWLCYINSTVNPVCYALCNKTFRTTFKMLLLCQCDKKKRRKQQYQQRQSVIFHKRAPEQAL
Method: In vitro pharmacological profiling of compounds was done against 78 functional assays for 47 common off-targets (30) by Eurofins DiscoverX Corporation (Fremont, CA, USA) using their SAFETYscan E/IC50 ELECT service (Cat Ref 87-1003DR, Safety47 Panel Dose Response). […] Compounds were tested in a range of 10 concentrations, following a 3-fold serial dilution, starting from 10 μM. The assays were performed utilizing the PathHunter enzyme fragment complementation (EFC) technology, FLIPR®-based cellular screening assays, and KINOMEscan kinase binding assays.
Prior to testing, cells (10,000 cells/well) were expanded from freezer stocks and seeded into a total volume of 50 μL into black walled, clear-bottom, Poly-D-lysine coated 384-well microplates and incubated at 37° C. […] Assays were performed in 1× dye loading buffer consisting of 1× Dye (DiscoverX, Calcium No Wash^PLUS kit, Catalog No. 90-0091), 1× Additive A and 2.5 mM Probenecid in HBSS/20 mM HEPES. Probenecid was prepared fresh. Prior to testing, media was aspirated from cells and replaced with 25 μL dye loading buffer. Cells were incubated for 45 min at 37° C. and then 20 min at RT. For agonist determination, 25 μL of 2× compound in HBSS/20 mM HEPES was added using a FLIPR Tetra (MDS). For antagonist determination, cells were pre-incubated with sample followed by agonist challenge at the EC80 concentration. 25 μL of 2× sample was added and cells were incubated for 30 min at RT in the dark to equilibrate plate temperature. After incubation, antagonist determination was initiated by addition of 25 μL of 1× compound with 3×EC80 agonist using FLIPR. For both agonist and antagonist formats, activity was measure on a FLIPR Tetra (MDS). Calcium mobilization was monitored for 2 min with a 5 sec baseline read.
FLIPR read—Area under the curve, was calculated for the entire 2 min read. Compound activity was analysed using CBIS data analysis suite (ChemInnovation, CA).

[3] = molecular target: T1, COX1 (Homo sapiens, UniProt P23219); assay: Enzymatic COX1 Inhibitor; assay type: biochemical; conditions: for Emax: read-out: Max response; for IC50: read-out: RC50, result type IC50
T1 construct: purchased BPS Bioscience
T1 sequence (P23219 24-599): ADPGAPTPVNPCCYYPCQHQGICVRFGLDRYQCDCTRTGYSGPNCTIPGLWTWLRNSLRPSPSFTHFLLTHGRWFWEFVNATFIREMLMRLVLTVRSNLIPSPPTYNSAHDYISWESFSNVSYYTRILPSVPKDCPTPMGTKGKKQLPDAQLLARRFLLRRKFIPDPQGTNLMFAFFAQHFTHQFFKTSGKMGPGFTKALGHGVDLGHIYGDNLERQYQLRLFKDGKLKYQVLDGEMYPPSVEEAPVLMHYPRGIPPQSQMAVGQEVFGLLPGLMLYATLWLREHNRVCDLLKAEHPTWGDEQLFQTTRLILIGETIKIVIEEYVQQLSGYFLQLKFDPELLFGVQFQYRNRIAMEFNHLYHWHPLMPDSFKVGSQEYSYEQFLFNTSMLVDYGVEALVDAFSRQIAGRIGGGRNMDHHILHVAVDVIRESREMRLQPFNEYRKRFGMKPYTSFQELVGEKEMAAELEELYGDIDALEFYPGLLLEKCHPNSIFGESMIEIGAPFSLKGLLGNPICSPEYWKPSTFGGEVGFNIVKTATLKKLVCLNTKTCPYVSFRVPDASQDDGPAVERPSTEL
Method: Enzyme preparations were sourced from various vendors-AChE (R&D Systems), COX1 and COX2 (BPS Bioscience), MAOA (Sigma), PDE3A and PDE4D2 (Signal Chem). AChE: enzyme and test compound were pre-incubated for 15 min at RT before substrate addition. Acetylthiocholine and DTNB were added and incubated at RT for 30 min. Signal was detected by measuring absorbance at 405 nm. COX1 and COX2: enzyme stocks were diluted in assay buffer (40 mM Tris-HCl, 1×PBS, 0.5 mM Phenol, 0.01% Tween 20 and 10 nM Hematin) and allowed to equilibrate with compounds at RT for 30 min (binding incubation). Arachidonic acid (1.7 μM) and Ampliflu Red (2.5 μM) were prepared and dispended into a reaction plate. Plates were read immediately on a fluorimeter with the emission detection at 590 nm and excitation wavelength 544 nm. MAOA: enzyme and test compound were pre-incubated for 15 min at 37° C. before substrate addition. The reaction was initiated by addition of kynuramine and incubated at 37° C. for 30 min. The reaction was terminated by addition of NaOH. The amount of 4-hydroquinoline formed was determined through spectrofluorometric readout with the emission detection at 380 nm and excitation wavelength 310 nm. PDE3A and PDE4D2: enzyme and test compound were pre-incubated for 15 min at RT before substrate addition. cAMP substrate (at a concentration equal to EC80) was added and incubated at RT for 30 min. Enzyme reaction was terminated by addition of 9 mM IBMX. Signal was detected using the HitHunter® cAMP detection kit. Microplates were transferred to a PerkinElmer Envision™ instrument and read out as described for each assay. […] For enzyme activity assays, percentage inhibition was calculated using the following equation: […]

[4] = molecular target: NMDAR (1A/2B) (Homo sapiens, UniProt Q05586+Q13224); assay: Ion Channel NMDAR (1A/2B) Blocker; assay type: cell-based; conditions: for Emax: Ion Channel NMDAR (1A/2B) Blocker, read-out: Max response
Sequence of NMDAR (1A/2B) (Q13224 27-1484, other chains not shown): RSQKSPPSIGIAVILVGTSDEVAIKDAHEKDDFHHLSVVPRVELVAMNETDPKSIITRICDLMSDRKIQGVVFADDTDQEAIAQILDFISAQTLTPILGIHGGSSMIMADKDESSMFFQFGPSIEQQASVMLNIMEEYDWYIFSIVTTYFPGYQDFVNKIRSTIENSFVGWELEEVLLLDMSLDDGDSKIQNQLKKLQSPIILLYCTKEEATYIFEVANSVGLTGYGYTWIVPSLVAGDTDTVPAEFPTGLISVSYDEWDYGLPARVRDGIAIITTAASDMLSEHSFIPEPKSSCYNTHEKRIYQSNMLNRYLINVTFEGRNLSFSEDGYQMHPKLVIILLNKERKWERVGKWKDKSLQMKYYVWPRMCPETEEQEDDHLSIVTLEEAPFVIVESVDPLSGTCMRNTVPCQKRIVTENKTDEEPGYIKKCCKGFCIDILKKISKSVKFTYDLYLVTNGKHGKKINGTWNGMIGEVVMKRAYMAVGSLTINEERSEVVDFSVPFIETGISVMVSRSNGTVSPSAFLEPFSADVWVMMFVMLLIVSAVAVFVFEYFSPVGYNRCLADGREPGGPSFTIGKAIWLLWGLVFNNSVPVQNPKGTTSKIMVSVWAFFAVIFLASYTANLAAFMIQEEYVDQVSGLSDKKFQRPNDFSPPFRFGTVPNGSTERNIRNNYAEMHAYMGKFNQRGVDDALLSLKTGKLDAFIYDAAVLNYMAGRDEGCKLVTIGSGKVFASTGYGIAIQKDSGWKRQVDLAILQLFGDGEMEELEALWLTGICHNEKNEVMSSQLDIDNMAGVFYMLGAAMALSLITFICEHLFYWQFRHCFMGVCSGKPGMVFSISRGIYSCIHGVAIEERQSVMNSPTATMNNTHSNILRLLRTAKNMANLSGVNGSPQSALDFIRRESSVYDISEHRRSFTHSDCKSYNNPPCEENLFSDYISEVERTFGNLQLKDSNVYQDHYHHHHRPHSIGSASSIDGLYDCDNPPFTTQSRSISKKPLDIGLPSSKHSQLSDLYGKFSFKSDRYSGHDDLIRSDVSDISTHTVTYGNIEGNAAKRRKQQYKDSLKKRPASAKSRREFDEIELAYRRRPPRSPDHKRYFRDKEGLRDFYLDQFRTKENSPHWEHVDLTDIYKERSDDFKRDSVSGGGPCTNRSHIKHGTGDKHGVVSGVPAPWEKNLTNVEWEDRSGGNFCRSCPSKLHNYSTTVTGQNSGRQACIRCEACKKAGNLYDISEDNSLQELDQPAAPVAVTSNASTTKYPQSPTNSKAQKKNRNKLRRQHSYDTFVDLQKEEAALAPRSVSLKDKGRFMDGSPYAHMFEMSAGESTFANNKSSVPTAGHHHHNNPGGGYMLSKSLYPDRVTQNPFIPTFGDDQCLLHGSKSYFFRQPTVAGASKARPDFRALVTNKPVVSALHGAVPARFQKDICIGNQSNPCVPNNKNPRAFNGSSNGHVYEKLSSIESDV

[5] = molecular target: T2, HTR1A (Homo sapiens, UniProt P08908); assay: cAMP HTR1A Agonist; conditions: for Emax: read-out: Max response
T2 sequence (P08908 1-422): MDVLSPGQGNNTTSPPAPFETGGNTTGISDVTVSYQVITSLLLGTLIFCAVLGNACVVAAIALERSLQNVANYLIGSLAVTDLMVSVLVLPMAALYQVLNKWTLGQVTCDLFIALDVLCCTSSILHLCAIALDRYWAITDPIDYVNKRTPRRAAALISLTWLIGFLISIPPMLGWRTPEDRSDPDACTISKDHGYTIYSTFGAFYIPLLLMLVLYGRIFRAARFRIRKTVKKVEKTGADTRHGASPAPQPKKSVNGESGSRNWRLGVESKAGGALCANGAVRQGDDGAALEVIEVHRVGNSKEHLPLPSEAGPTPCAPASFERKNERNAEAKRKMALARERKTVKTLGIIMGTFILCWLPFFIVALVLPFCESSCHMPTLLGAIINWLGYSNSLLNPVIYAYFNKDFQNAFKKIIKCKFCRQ
Method: (§1) In vitro pharmacological profiling of compounds was done against 78 functional assays for 47 common off-targets (30) by Eurofins DiscoverX Corporation (Fremont, CA, USA) using their SAFETYscan E/IC50 ELECT service (Cat Ref 87-1003DR, Safety47 Panel Dose Response). […] Compounds were tested in a range of 10 concentrations, following a 3-fold serial dilution, starting from 10 μM.
cAMP Hunter cell lines were expanded from freezer stocks. Prior to testing, cells were seeded in a total volume of 20 μL into white walled 384-well microplates and incubated at 37° C. cAMP modulation was determined using the DiscoverX HitHunter cAMP XS+ assay. For Gs agonist determination, cells were incubated with sample to induce response. For Gi agonist determination, cells were incubated with sample in the presence of EC80 forskolin to induce response. For both conditions, media was aspirated from cells and replaced with 15 μL 2:1 HBSS/10 mM HEPES:cAMP XS+ Ab reagent. Intermediate dilution of sample stocks was performed to generate 4× sample in assay buffer (containing 4×EC80 forskolin in the case of antagonist determination). 5 μL of 4× sample was added to cells and incubated at 37° C. or room temperature (RT) for 30 or 60 min. Final assay vehicle concentration was 1%. For antagonist determination, cells were pre-incubated with sample followed by agonist challenge at the EC80 concentration. Media was aspirated from cells and replaced with 10 μL 1:1 HBSS/HEPES:cAMP XS+ Ab reagent. 5 μL of 4× compound was added to the cells and incubated at 37° C. or RT for 30 min. 5 μL of 4×EC80 agonist was added to the cells and incubated at 37° C. or RT for 30 or 60 min. For Gi coupled GPCRs, EC80 forskolin was included. […] Microplates were read following signal generation with a PerkinElmer Envision™ instrument for chemiluminescent signal detection. Compound activity was analyzed using CBIS data analysis suite (ChemInnovation, CA).

[6] = tested on: EKP-induced epileptiform discharges in zebrafish larvae; assay: Zebrafish EKP seizure model, electrophysiology (non-invasive LFP recordings, PSD analysis); assay type: in vivo, zebrafish (Danio rerio); conditions: 7 dpf larvae; for effect on EKP-induced elevated PSD (in words): 22 h; for efficacy against EKP-induced epileptiform discharges 2 μM / efficacy against EKP-induced epileptiform discharges 10 μM: 22 h incubation, mean, normalized PSD 20-90 Hz
Method: Non-invasive LFP recordings were measured from the midbrain (optic tectum) of 7 dpf zebrafish larvae pre-incubated with VHC only, EKP only, or compound and EKP. […] These steps occurred at 28° C., while further manipulation and electrophysiological recordings occurred at room temperature (±21° C.) and were performed as described before (16, 27). Each recording lasted 600 seconds.
A power spectral density (PSD) analysis of the recordings was performed using MatLab R2019 software (MATrix LABoratory, USA) as described in (26). The PSD estimate of each LFP recording was summed over each 10 Hz frequency band, ranging from 0 to 160 Hz. Next, the PSD estimates were normalized against the VHC control. Data are expressed as mean±SEM PSD per larva and per condition over the 20-90 Hz region. Outliers were identified via the ROUT test (Q=1%).
PSD analysis assumes that the epileptiform activity manifests as a high-power oscillation at certain frequencies (26). Thus, if epileptic activity occurs often during the recording an elevated PSD estimate should be found at the corresponding frequency band(s) (26).

[7] = molecular target: T3, ADRA2A (Homo sapiens, UniProt P08913); assay: cAMP ADRA2A Antagonist; conditions: for Emax: read-out: Max response
T3 sequence (P08913 1-465): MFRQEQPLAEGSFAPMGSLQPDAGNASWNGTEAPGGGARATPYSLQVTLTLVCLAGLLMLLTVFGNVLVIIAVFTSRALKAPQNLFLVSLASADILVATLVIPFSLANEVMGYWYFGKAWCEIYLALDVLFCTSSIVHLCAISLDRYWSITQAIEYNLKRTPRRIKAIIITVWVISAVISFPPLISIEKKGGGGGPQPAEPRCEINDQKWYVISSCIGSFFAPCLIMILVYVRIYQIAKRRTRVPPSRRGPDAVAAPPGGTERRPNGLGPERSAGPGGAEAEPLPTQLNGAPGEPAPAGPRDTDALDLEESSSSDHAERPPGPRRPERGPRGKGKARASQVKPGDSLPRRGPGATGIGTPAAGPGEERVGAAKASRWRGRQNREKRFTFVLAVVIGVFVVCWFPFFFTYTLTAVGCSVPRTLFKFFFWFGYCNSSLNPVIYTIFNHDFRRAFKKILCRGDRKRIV
Method: as §1
cAMP Hunter cell lines were expanded from freezer stocks. Prior to testing, cells were seeded in a total volume of 20 μL into white walled 384-well microplates and incubated at 37° C. cAMP modulation was determined using the DiscoverX HitHunter cAMP XS+ assay. For Gs agonist determination, cells were incubated with sample to induce response. For Gi agonist determination, cells were incubated with sample in the presence of EC80 forskolin to induce response. For both conditions, media was aspirated from cells and replaced with 15 μL 2:1 HBSS/10 mM HEPES:cAMP XS+ Ab reagent. Intermediate dilution of sample stocks was performed to generate 4× sample in assay buffer (containing 4×EC80 forskolin in the case of antagonist determination). 5 μL of 4× sample was added to cells and incubated at 37° C. or room temperature (RT) for 30 or 60 min. Final assay vehicle concentration was 1%. For antagonist determination, cells were pre-incubated with sample followed by agonist challenge at the EC80 concentration. Media was aspirated from cells and replaced with 10 μL 1:1 HBSS/HEPES:cAMP XS+ Ab reagent. 5 μL of 4× compound was added to the cells and incubated at 37° C. or RT for 30 min. 5 μL of 4×EC80 agonist was added to the cells and incubated at 37° C. or RT for 30 or 60 min. For Gi coupled GPCRs, EC80 forskolin was included. […] Microplates were read following signal generation with a PerkinElmer Envision™ instrument for chemiluminescent signal detection. Compound activity was analyzed using CBIS data analysis suite (ChemInnovation, CA). For Gs agonist mode assays, percentage activity was calculated using the following equation:

Sequence of nAChR (a4/b2) (P43681 29-627 limits assumed): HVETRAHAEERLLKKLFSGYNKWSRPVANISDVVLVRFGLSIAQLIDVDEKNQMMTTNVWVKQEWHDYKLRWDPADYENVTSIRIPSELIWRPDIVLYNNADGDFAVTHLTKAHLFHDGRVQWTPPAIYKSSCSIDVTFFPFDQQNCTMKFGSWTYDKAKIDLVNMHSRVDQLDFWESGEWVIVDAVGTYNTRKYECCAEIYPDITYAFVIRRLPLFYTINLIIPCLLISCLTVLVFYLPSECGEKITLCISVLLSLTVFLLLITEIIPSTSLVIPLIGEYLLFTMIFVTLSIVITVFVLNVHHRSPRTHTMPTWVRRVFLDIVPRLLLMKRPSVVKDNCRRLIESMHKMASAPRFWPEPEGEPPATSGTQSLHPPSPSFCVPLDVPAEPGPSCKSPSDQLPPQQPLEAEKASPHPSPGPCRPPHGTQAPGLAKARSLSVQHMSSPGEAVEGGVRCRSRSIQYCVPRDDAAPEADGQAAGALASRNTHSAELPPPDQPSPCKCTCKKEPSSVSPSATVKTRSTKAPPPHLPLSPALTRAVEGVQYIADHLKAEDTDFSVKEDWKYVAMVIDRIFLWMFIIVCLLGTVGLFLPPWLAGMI
Sequence of nAChR (a4/b2) (P17787 26-502): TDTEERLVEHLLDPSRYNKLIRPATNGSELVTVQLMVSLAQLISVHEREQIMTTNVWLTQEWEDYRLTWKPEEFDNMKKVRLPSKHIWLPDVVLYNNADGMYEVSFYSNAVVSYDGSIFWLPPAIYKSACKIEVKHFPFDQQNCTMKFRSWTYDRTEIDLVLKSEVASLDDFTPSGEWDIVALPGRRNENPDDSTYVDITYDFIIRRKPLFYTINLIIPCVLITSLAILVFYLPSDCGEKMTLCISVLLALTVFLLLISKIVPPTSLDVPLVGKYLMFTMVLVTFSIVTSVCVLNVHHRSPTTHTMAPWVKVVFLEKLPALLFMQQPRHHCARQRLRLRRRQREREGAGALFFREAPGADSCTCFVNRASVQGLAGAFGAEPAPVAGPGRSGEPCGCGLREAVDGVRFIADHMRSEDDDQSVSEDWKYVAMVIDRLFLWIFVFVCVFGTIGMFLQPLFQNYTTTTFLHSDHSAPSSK

## Clc1cccc(C#Cc2n[nH]c3ncccc23)c1 [Compound 10.1, 3-((3-chlorophenyl)ethynyl)-1H-pyrazolo[3,4-b]pyridine]
[1]
  IC50: > 10 µM
  Emax: 1.5%
[2]
  IC50: > 10 µM
  Emax: 0%
[3]; Enzymatic COX1 Inhibitor
  Emax: 0%
  IC50: > 10 µM
[4]
  IC50: > 10 µM
  Emax: 0%
[5]
  EC50: > 10 µM
  Emax: 9.1%
[6]; 2 μM
  effect on EKP-induced elevated PSD (in words): did not
  efficacy against EKP-induced epileptiform discharges 2 μM: −30%
[6]; 10 μM
  effect on EKP-induced elevated PSD (in words): significant decrease
  efficacy against EKP-induced epileptiform discharges 10 μM: 77%
[7]
  IC50: > 10 µM
  Emax: 0%

## CC(C)(C)c1ccc(C#CC(O)c2ccccc2)cc1 (racemic) [Compound 3.3, rac-3-(4-(tert-butyl)phenyl)-1-phenylprop-2-yn-1-ol]
[1]
  IC50: 6.9 µM
  Emax: 73.9%
[2]
  IC50: > 10 µM
  Emax: 0%
[3]; Enzymatic COX1 Inhibitor
  IC50: > 10 µM
[3]
  Emax: 9.9%
[4]
  IC50: > 10 µM
  Emax: 0%
[5]
  EC50: > 10 µM
  Emax: 0%
[6]; 2 μM
  effect on EKP-induced elevated PSD (in words): remained effective
  efficacy against EKP-induced epileptiform discharges 2 μM: 54%
[6]; 10 μM
  effect on EKP-induced elevated PSD (in words): significant decrease
  efficacy against EKP-induced epileptiform discharges 10 μM: 82%
[7]
  IC50: > 10 µM
  Emax: 13%
